Where two headings read alike, the source gives them in different places. Residues, ends and D or L forms follow the SMILES beside them.
Columns and labels:
[1] = tested on: feline monocytes; test: Internalization assay of control ligands (beads, transferrin or albumin) in monocytes; assay type: cell-based; conditions: for internalization of a control ligand: control ligand not named
Protocol: To test the effectiveness of all reagents, a suitable control was used in each experiment. Monocytes seeded on glass coverslips were pre-incubated for 30 minutes at 37° C. with 5% CO2 in the presence of one of the inhibitors. After treatment, the cells were incubated with biotinylated transferrin (Sigma-Aldrich GmbH) or fluorescent 1 μm polystyrene microspheres, FluoSpheres (Molecular Probes-Invitrogen), in presence of the inhibitor. Then, cells were fixed with 1% formaldehyde and permeabilized with 0.1% Triton X-100. The biotinylated transferrin was visualized by incubating the cells with streptavidin-FITC for 1 hour at 37° C. and cells incubated with fluorescent beads were incubated with phalloidin-Texas Red (Molecular Probes-Invitrogen) for 1 hour at 37° C. to visualize the lamellipodia. The glass coverslips were mounted on microscope slides using glycerin-DABCO and analyzed by confocal microscopy. […] Fluorescent beads were considered internalized when they were found inside the cortical actin labeling.

[2] = tested on: surface expressed viral antigens in FIPV infected monocytes; test: Internalization inhibition assay of surface expressed viral antigens (antigen-antibody complexes); assay type: cell-based, feline; conditions: each inhibitor at its working concentration; for internalization of viral antigens: 30 min pre-incubation, 30 min with antibodies
[3] = tested on: HSV1 (VERO cells); test: Plaque reduction assay, entry of HSV1 in VERO cells; assay type: cell-based, human herpes simplex virus 1
[4] = tested on: hepatitis C virus (HCV); test: Single infected cell reduction assay, entry of HCV in Huh7.5 hepatoma cells; assay type: cell-based, human hepatitis C virus; conditions: 25 μM; Huh7.5 cells
Protocol: The single infected cell reduction assay was used to determine the antiviral potency of to ML-7 on the entry of hepatitis C virus (HCV). • 1. Day 1
Huh7.5 hepatoma cells were seeded in a 96-well plate at 10000 cells/well in 100 μl medium containing 0, 2.5 or 25 μM of ML-7. • 2. Day 2
Virus was diluted in medium containing the different concentrations of the inhibitor to reach an end concentration of 2,22.10^6 IU/ml. 100 μl of this mixture was added to the wells and the plate was further incubated at 37° C. • 3. Day 6
The cells were fixed and stained for NS5A (a HCV protein). Then the amount of HCV-positive clusters per well was counted. A cluster is defined as a group of positive cells that is separated from another cluster by at least 1 non-infected cell.

[5] = tested on: Porcine respiratory coronavirus (PRCV) in ST cells; test: Plaque reduction assay, entry of porcine respiratory coronavirus in ST cells; assay type: cell-based
[6] = tested on: EHV (EEL cells); test: Plaque reduction assay, entry of equine herpesvirus in EEL cells; assay type: cell-based
[7] = tested on: FeHV (CrFK cells); test: Plaque reduction assay, entry of feline herpesvirus in CrFK cells; assay type: cell-based
[8] = tested on: swine influenzavirus in MDCK cells; assay type: cell-based
[9] = tested on: protein kinase C; conditions: 50 and 100 μM; cited from earlier work
[10] = tested on: protein kinase A; conditions: 50 and 100 μM; cited from earlier work
[11] = tested on: PrV infected porcine monocytes; test: Antibody-induced internalization of PrV viral proteins in porcine monocytes; assay type: cell-based; conditions: 10 μM
[12] = tested on: FECV 1863 (CrFK cells); test: Plaque reduction assay, entry of FECV 1863 in CrFK cells; assay type: cell-based, feline enteric coronavirus
[13] = tested on: FIPV Black (fcwf cells); test: Plaque reduction assay, entry of FIPV Black in fcwf cells; assay type: cell-based, feline infectious peritonitis virus; conditions: FIPV strain Black
[14] = tested on: HIV-1 NL4.3-eGFP; assay type: cell-based, Human Immunodeficiency Virus 1
Protocol: In this experiment the Human Immunodeficiency Virus 1 (HIV-1) strain HIV-1 NL4.3-eGFP which is a lab strain with an eGFP reporter, was used to infect the human T-cell lymphoblatic lymphoma cell line SupT1. The percentage of eGFP positive cells measured at different time point was used as endpoint read out SupT1. ML-7 inhibitor was used at three different concentration: 0 (DMSO), 2,5 and 25 μM.
SupT1 cells were at a concentration of 20000 cell/well in 200 μl of iMDM medium supplemented with 10% FCS, 1% penicillin/streptomycin and 1% L-glutamine, and were centrifuged at 300 g for 5 min at 4° C. Supernatant was removed and the cells were treated for 30 min with 100 μl of 0 (DMSO at 1/200 dilution in culture medium), 5 and 50 μM ML-7 inhibitor prepared in culture medium at 1/2000 and 1/200 dilution respectively. Meanwhile, HIV-1 NL4.3-eGFP virus was diluted in 10 fold dilution series in a separate plate (starting from 1/5 of stock, put on first well). 100 μl of each virus at every dilution was transferred to the corresponding well of the culture plate treated with the inhibitor. Four hours later approximately 100 μl was transferred to an
Cells were centrifuged at 300 g for 5 min at 4° C. and approximately 100 μl was collected then stored at −80° C. for p24 measurement. Then 100 μl of cells infected with HIV1-NL4.3-eGFP virus was collected for the determination of the percentage of eGFP positive cells by FACS. Cells were resuspended in 200 μl of medium containing the adequate ML-7 inhibitor concentration. • 3. Day 7
Cells were treated in the same way as in day 3
During the course of the experiment cells were monitored carefully by microscopy to check for signs of infection such as: • eGFP expression • Syncytia formation • Cell death Results

[15] = tested on: PRRSV in MARC cells; test: Plaque reduction assay, entry of PRRSV in MARC cells; assay type: cell-based, Porcine reproductive and respiratory syndrome virus
[16] = tested on: FIPV 1146 (CrFK cells); test: Plaque reduction assay, entry of FIPV 1146 in CrFK cells; assay type: cell-based, feline infectious peritonitis virus
[17] = tested on: PRRSV in alveolar macrophage; assay type: cell-based, Porcine reproductive and respiratory syndrome virus
[18] = tested on: feline monocytes; test: Internalization assay of control ligands (beads, transferrin or albumin) in monocytes; assay type: cell-based; conditions: 50 μg/ml genistein
[19] = inhibitor at working concentration
[20] = feline coronaviruses, FIG. 4, 50 and 100 μM
[21] = feline coronaviruses, FIG. 4, higher concentrations
[22] = Day 3, 2.5 μM, virus dilution 10X
[23] = Day 3, 2.5 μM, virus dilution 100X
[24] = Day 3, 2.5 μM, virus dilution 1000X
[25] = Day 3, 25 μM, virus dilution 10X
[26] = Day 3, 25 μM, virus dilution 100X
[27] = Day 3, 25 μM, virus dilution 1000X
[28] = Day 7, 2.5 μM, virus dilution 10X
[29] = Day 7, 2.5 μM, virus dilution 100X
[30] = Day 7, 2.5 μM, virus dilution 1000X, at or below detection limit
[31] = Day 7, 25 μM, virus dilution 10X
[32] = Day 7, 25 μM, virus dilution 100X
[33] = Day 7, 25 μM, virus dilution 1000X, at or below detection limit

O=S(=O)(NCCNC/C=C/c1ccc(Br)cc1)c1cccc2cnccc12 [H-89]
internalization of a control ligand [1, 19]: 33±29%
internalization of viral antigens (in words) [2]: unaffected

COC(=O)[C@@]1(O)C[C@H]2O[C@]1(C)n1c3ccccc3c3c4c(c5c6ccccc6n2c5c31)C(=O)NC4 [K252a, K-252a]
internalization of the control ligand (beads), in words ([1]; 150 nM K-252a): inhibited
internalization of viral antigens (in words) [2]: inhibited

COc1ccc(S(=O)(=O)N(CCO)c2ccccc2CN(C)C/C=C/c2ccc(Cl)cc2)cc1 [KN-93]
internalization of a control ligand [1, 19]: 23±16%
internalization of viral antigens (in words) [2]: unaffected

O=S(=O)(c1cccc2c(I)cccc12)N1CCCNCC1 [ML-7]
plaques, % of the untreated control ([3]; 1,56 μM): 81 % of the untreated control
additional effect at high concentration ([3]; 25 and 100 μM): additional effect
internalization of the control ligand beads [1, 19]: 11±5 % of untreated control
amount of infected clusters, % of the untreated control [4]: 31 % of the untreated control
number of plaques, % of the untreated control ([5]; 50 μM): about 40 % of the untreated control
entry (plaque formation), % of the untreated control ([5]; 1,56 μM): 68 % of the untreated control
inhibitory effect at higher concentrations ([5]; higher concentrations (up to 6 μM)): inhibitory effect is lost again
additional effect at high concentration ([6]; 100 μM): additional inhibitory effect
plaques, % of the untreated control ([6]; 1,56 μM): 86 % of the untreated control
additional effect at high concentration ([7]; 100 μM): additional inhibitory effect
plaques, % of the untreated control ([7]; 1,56 μM): 79 % of the untreated control
number of plaques, % of the control ([8]; 3,13 μM): 76 % of the control
further reduction at the higher concentrations ([8]; higher concentrations): no further reduction
block of protein kinase C [9]: can also block
block of protein kinase A [10]: can also block
antibody-induced internalization of PrV viral proteins [11]: can be inhibited
reduction of entry, % of the control ([12]; FECV on CrFK cells, 1,56 μM): 73%
inhibitory effect on entry at the highest concentrations [12, 20]: inhibitory effect increased rapidly
inhibitory effect on entry at higher concentrations [12, 21]: inhibitory effect seemed to be lost again
internalization of viral antigens [2]: 12±21 % of untreated control
effect on the entry process [13]: little effect
protection from virus mediated cell death ([14]; 25 μM): protected
Percentage of eGFP cells [14, 22]: 2.98%
eGFP cells relative to 0 μM ML-7 (100%) [14, 22]: (80%)
Percentage of eGFP cells [14, 23]: 0.18%
eGFP cells relative to 0 μM ML-7 (100%) [14, 23]: (46%)
Percentage of eGFP cells [14, 24]: 0.04%
eGFP cells relative to 0 μM ML-7 (100%) [14, 24]: (36%)
Percentage of eGFP cells [14, 25]: 1.52%
eGFP cells relative to 0 μM ML-7 (100%) [14, 25]: (41%)
Percentage of eGFP cells [14, 26]: 0.19%
eGFP cells relative to 0 μM ML-7 (100%) [14, 26]: (49%)
Percentage of eGFP cells [14, 27]: 0.06%
eGFP cells relative to 0 μM ML-7 (100%) [14, 27]: (54%)
Percentage of eGFP cells [14, 28]: 35.8%
eGFP cells relative to 0 μM ML-7 (100%) [14, 28]: (92%)
Percentage of eGFP cells [14, 29]: 18.64%
eGFP cells relative to 0 μM ML-7 (100%) [14, 29]: (44%)
Percentage of eGFP cells [14, 30]: 0.95%
eGFP cells relative to 0 μM ML-7 (100%) [14, 30]: (3160%)°
Percentage of eGFP cells [14, 31]: 1.13%
eGFP cells relative to 0 μM ML-7 (100%) [14, 31]: (3%)
Percentage of eGFP cells [14, 32]: 0.14%
eGFP cells relative to 0 μM ML-7 (100%) [14, 32]: (0.3%)
Percentage of eGFP cells [14, 33]: 0.06%
eGFP cells relative to 0 μM ML-7 (100%) [14, 33]: (200%)
inhibition of HIV-1 NL4.3-eGFP infection ([14]; SupT1 cells): strong inhibition
toxic effect on cells ([14]; SupT1 cells): No toxic effect
virus induced syncytia ([14]; high concentration, data not shown): inhibited completely
protection from virus mediated cell death ([14]; intermediate inhibitor concentration): mild
effect on entry [15]: activating effect instead of an inhibiting effect
reduction of entry, % of the control ([16]; FIPV on CrFK cells, 3,13 μM): 88 % of the control
inhibitory effect on entry at the highest concentrations [16, 20]: inhibitory effect increased rapidly
inhibitory effect on entry at higher concentrations [16, 21]: inhibitory effect seemed to be lost again
number of plaques, % of the control ([17]; 0,78 μM): 68 % of the control
further reduction at the higher concentrations ([17]; higher concentrations): no further reduction

CC(NC(=O)C(CCCN=C(N)N)NC(=O)C(CCCCN)NC(=O)C(N)CCCN=C(N)N)C(=O)NC(CCCN=C(N)N)C(=O)NC(CCCCN)C(=O)NC(CCC(=O)O)C(=O)O (centres unmarked) [PKG-inhibitor] (H-RKRARKE-OH; configuration not given here)
internalization of a control ligand [1, 19]: 14±7%
internalization of viral antigens (in words) [2]: unaffected

CN(C)CCCn1cc(C2=C(c3c[nH]c4ccccc34)C(=O)NC2=O)c2ccccc21 [bisindolylmaleimide I]
internalization of a control ligand [1, 19]: 25±13%
internalization of viral antigens (in words) [2]: unaffected

CN(N=O)c1cc(O)ccc1O [dephostatin]
internalization of the control ligand beads [1, 19]: 2±3 % of untreated control
internalization of viral antigens [2]: 96±23 % of untreated control

O=c1c(-c2ccc(O)cc2)coc2cc(O)cc(O)c12 [genistein]
internalization of the control ligand albumin [18]: 3±5 % of the untreated control
internalization of viral antigens [2]: 81±4 % of untreated control

[F-].[Na+] [sodium fluoride]
internalization of the control ligand transferrin [1, 19]: 46±6 % of the untreated control
internalization of viral antigens (in words) [2]: no reduction

CN[C@@H]1C[C@H]2O[C@@](C)([C@@H]1OC)n1c3ccccc3c3c4c(c5c6ccccc6n2c5c31)C(=O)NC4 [staurosporine]
internalization of the control ligand beads [1, 19]: 23±4 % of untreated control
internalization of viral antigens [2]: 21±2 % of untreated control

Reference: patent US8293464B2, “Methods for reducing the internalization of viruses and identification of compounds effective thereof” (Universiteit Gent, priority 2008, dated 2012)
